Values after ≈ are worked out from the molar mass of the structure shown.
What was measured:
[1] = tested on: Lemna minor; experiment: Herbicidal activity against Lemna minor (common duckweed) at 100 uM; assay type: functional
[2] = tested on: Tetradesmus obliquus; experiment: Antimicrobial activity against Acutodesmus obliquus SAG 276-1 assessed as growth inhibition; assay type: functional
[3] = Inhibition of PS2 at 100 uM
[4] = tested on: Desmodesmus subspicatus; experiment: Antimicrobial activity against Scenedesmus subspicatus SAG 86.81 assessed as growth inhibition; assay type: functional
[5] = Inhibition of PS2 at 50 uM
[6] = tested on: Lemna minor; experiment: Herbicidal activity against Lemna minor (common duckweed) at 50 uM; assay type: functional; settings: read-out: GI
[7] = tested on: Synechococcus; experiment: Antimicrobial activity against cyanobacteria Synechococcus PCC 6911 assessed as growth inhibition; assay type: functional
[8] = tested on: Setaria faberi; experiment: Herbicidal activity against Setaria faberi (Giant Foxtail) assessed as growth reduction at 3 mg/ha; assay type: functional
[9] = tested on: Avena fatua; experiment: Herbicidal activity against Avena fatua assessed as growth reduction at 3 mg/ha; assay type: functional
[10] = tested on: Helianthus annuus; experiment: Herbicidal activity against Helianthus annuus (sunflower) assessed as growth reduction at 3 mg/ha; assay type: functional
[11] = tested on: Ipomoea hederacea; experiment: Herbicidal activity against Ipomoea hederacea (ivy-leaved morning glory) assessed as growth reduction at 3 mg/ha; assay type: functional
[12] = tested on: Helianthus annuus; experiment: Herbicidal activity against Helianthus annuus (sunflower) assessed as growth reduction at 1 mg/ha; assay type: functional
[13] = tested on: Ipomoea hederacea; experiment: Herbicidal activity against Ipomoea hederacea (ivy-leaved morning glory) assessed as growth reduction at 1 mg/ha; assay type: functional
[14] = tested on: Avena fatua; experiment: Herbicidal activity against Avena fatua assessed as growth reduction at 1 mg/ha; assay type: functional
[15] = tested on: Setaria faberi; experiment: Herbicidal activity against Setaria faberi (Giant Foxtail) assessed as growth reduction at 1 mg/ha; assay type: functional

CCCCCC#CC#C/C=C/CC(C)C[C@@H]1C[C@H](C)/C(=C2/C(=O)C(C)N(C)C2=O)N1N (stereo not given in full) [FISCHERELLIN A]
inhibition at 100 µM [1]: 74%
MIC [2]: 0.5 µM (≈ 0.212 µg/mL)
inhibition [3]: 98%
MIC [4]: 0.5 µM (≈ 0.212 µg/mL)
inhibition [5]: 60%
inhibition of growth at 50 µM [6]: 44%
MIC [7]: 0.5 µM (≈ 0.212 µg/mL)

C[C@H]1CCC[C@H]2O[C@@H]2COc2ccc(cc2)C[C@H]2NC(=O)/C(=C/1O)C2=O [MACROCIDIN A]
growth inhibition (GI) [8]: 65%
growth inhibition (GI) [9]: 0%
growth inhibition (GI) [10]: 50%
growth inhibition (GI) [11]: 0%

C[C@@H]1/C(O)=C2/C(=O)N[C@H](Cc3ccc(cc3)OC[C@H]3O[C@@H]3CCC1O)C2=O (stereo not given in full) [MACROCIDIN B]
growth inhibition (GI) [12]: 50%
growth inhibition (GI) [13]: 0%
growth inhibition (GI) [14]: 0%
growth inhibition (GI) [15]: 20%

Source: ChEMBL document CHEMBL3045666, “The phytotoxicity of natural tetramic acid derivatives” (Pest Manag Sci, 2011)
